Converted amounts (≈) assume the structure as drawn. Structures can show the parent of a compound that is named as a salt. Where two headings read alike, the source gives them in different places.
Experiments:
[1] = biological target: Mtb FtsZ (Mycobacterium tuberculosis, UniProt P9WN95); experiment: biochemical; format: biochemical
[2] = test system: MAC NJ211; experiment: In vitro screen versus MAC NJ211 (Alamar blue microdilution broth assay, MIC99); format: cell-based; conditions: read-out: MAC NJ211 MIC99
[3] = test system: Mtb H37Ra (ATCC 25177); experiment: In vitro screen versus Mtb H37Ra (Alamar blue microdilution broth assay, MIC99); format: cell-based, M. tuberculosis; conditions: Mycobacterium tuberculosis
Protocol: The initial screening set and selected other compounds were tested for their inhibitory activity against Mtb H37Ra (ATCC 25177) and MAC NJ211 strains. Screening was performed at 1.28 and 12.8 μg/mL in Middlebrook 7H9 broth supplemented with 0.2% glycerol and ADC enrichment using a colorimetric (Alamar blue) microdilution broth assay by reported methods.[15]

[4] = test system: Mtb H37Rv; experiment: In vitro qHTS assay against Mtb H37Rv (IC90); format: cell-based, M. tuberculosis; conditions: for IC90: read-out: Mtb H37Rv IC90
[5] = mean ± standard deviation, at least three times per assay, NA = not active up to 100 μM, read-out: Mtb FtsZ Polymerization IC50
[6] = lowest drug concentration that completely inhibited growth
[7] = lowest drug concentration that completely inhibited growth, read-out: Mtb H37Ra MIC99
[8] = Mycobacterium tuberculosis, H37RV, concentration that inhibits bacterial growth by 90%
[9] = concentration that inhibits bacterial growth by 90%

Chain of Mtb FtsZ (P9WN95 whole entry): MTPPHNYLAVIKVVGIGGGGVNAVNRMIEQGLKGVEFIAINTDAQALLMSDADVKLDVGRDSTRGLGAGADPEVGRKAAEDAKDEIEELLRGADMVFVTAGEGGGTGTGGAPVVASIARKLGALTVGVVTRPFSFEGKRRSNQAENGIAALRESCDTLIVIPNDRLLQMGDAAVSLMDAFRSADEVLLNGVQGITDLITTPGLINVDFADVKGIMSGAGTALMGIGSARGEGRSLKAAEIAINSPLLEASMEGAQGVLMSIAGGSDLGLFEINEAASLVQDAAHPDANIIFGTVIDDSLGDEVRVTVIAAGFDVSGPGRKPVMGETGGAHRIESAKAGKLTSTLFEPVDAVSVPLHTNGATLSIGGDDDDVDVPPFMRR

## COc1cc(/C=C(\C#N)C(N)=O)cc(CSc2nc3ccccc3s2)c1O [Compound 15, AG-825]
[1]; [5]
  IC50: 31.7 ± 1.7 µM

## CC(C)c1c(O)ccc2c1CC[C@H]1C(C)(C)CCC[C@]21C [Compound 13, Totarol]
[1]; [5]
  IC50: 47.5 ± 4.9 µM
[2]; [6]
  MIC99: 25 µg/mL (≈ 87.3 µM)
[3]; [7]
  MIC99: 25 µg/mL
[3]; same MIC99 given in μM, read-out: Mtb H37Ra MIC99 (concentration in μM in parentheses)
  MIC99: 87.3 µM

## COc1cc2c(cc1O)CC[n+]1cc3cc(OC)c(OC)cc3cc1-2 [Compound 9, Pseudojatrorrhizine]
[1]; [5]
  IC50: 105 ± 32 µM
[2]; [6]
  MIC99: 64 µg/mL
[3]; [7]
  MIC99: > 64 µg/mL

## O=c1c(O)c(-c2cc(O)c(O)c(O)c2)oc2cc(O)cc(O)c12 [Compound 4, Myrcetin]
[1]
  IC50: 42.4 ± 6.3 µM
[2]
  MIC99: > 128 µg/mL
[3]; [7]
  MIC99: > 128 µg/mL

## CSc1ccc(/C=C2/C(C)=C(CCNCc3ccco3)c3cc(F)ccc32)cc1 [Compound 59, (Z)-2-(5-Fluoro-2-methyl-1-(4-(methylthio)benzylidene)-1H-inden-3-yl)-N-(furan-2-ylmethyl)ethanamine]
[2]; [6]
  MIC99: 8 µg/mL (≈ 19.7 µM)
[3]; [7]
  MIC99: 4 µg/mL
[4]; [8]
  IC90: 1.69 ± 0.06 µM

## CCN(CC)CCNc1nc(/C=C/c2ccc(Cl)cc2)nc2cc3ccccc3cc12 [Compound 16, Zantrin Z3]
[2]; [6]
  MIC99: 2 µg/mL (≈ 4.64 µM)
[3]; [7]
  MIC99: 1 µg/mL

## Oc1ccc(Cl)cc1Cc1cc(Cl)cc(Cc2cc(Cl)ccc2O)c1O [Compound 17, Zantrin Z1]
[2]; [6]
  MIC99: 16 µg/mL (≈ 39.1 µM)
[3]; [7]
  MIC99: 8 µg/mL

## CNCCN(C)C(=O)CC1=C(C)/C(=C/c2ccc(SC)cc2)c2ccc(F)cc21 [Compound 23, (Z)-2-(5-Fluoro-2-methyl-1-(4-(methylthio)benzylidene)-1H-inden-3-yl)-N-methyl-N-(2-(methylamino)ethyl)acetamide]
[1]; [5]
  IC50: 34.9 ± 7 µM
[3]; [7]
  MIC99: 8 µg/mL
[4]; [8]
  IC90: 8.28 ± 0.33 µM

## O=c1c(O)c(-c2ccc(O)c(O)c2)oc2cc(O)cc(O)c12 [Compound 3, Quercetin dihydrate]
[1]
  IC50: 21.7 ± 4.8 µM
[2]
  MIC99: > 128 µg/mL
[3]; [7]
  MIC99: > 128 µg/mL

## CCN(CC)CCNC(=O)C(C)C1=C(C)/C(=C/c2ccc(SC)cc2)c2ccc(F)cc21 (stereo not drawn) [Compound 46, (Z)-N-(2-(Diethylamino)ethyl)-2-(5-fluoro-2-methyl-1-(4-(methylthio)benzylidene)-1H-inden-3-yl)propanamide]
[4]; [8]
  IC90: 4.19 ± 0.2 µM
other
  melting point: 75 to 77 °C

## CSc1ccc(/C=C2/C(C)=C(CCNCCN3CCCCC3)c3cc(F)ccc32)cc1 [Compound 60, (Z)-2-(5-Fluoro-2-methyl-1-(4-(methylthio)benzylidene)-1H-inden-3-yl)-N-(2-(piperidin-1-yl)ethyl)ethanamine]
[2]
  MIC99: 8 µg/mL (≈ 18.3 µM)
[3]; [7]
  MIC99: 2 µg/mL
[4]; 48 vs 23, 57 vs 56, 60 vs 24
  fold more active against Mtb H37Rv than corresponding analog: 1.6 fold
[4]; Mycobacterium tuberculosis, H37RV
  IC90: 0.88 ± 0.01 µM

## CSc1ccc(/C=C2/C(C)=C(CC(=O)NCc3ccccc3)c3cc(F)ccc32)cc1 [Compound 34, (Z)-N-Benzyl-2-(5-fluoro-2-methyl-1-(4-(methylthio)benzylidene)-1H-inden-3-yl)acetamide]
[4]; [8]
  IC90: > 100 µM
[4]; [9]
  Mtb H37Rv IC90: inactive
other
  melting point: 171 to 174 °C

## CC1=C(CC(=O)N(C)CCN(C)C)c2cc(F)ccc2/C1=C\c1nc2ccccc2s1 [Compound 39, (Z)-2-(1-(Benzo[d]thiazol-2-ylmethylene)-5-fluoro-2-methyl-1H-inden-3-yl)-N-(2-(dimethylamino)ethyl)-N-methylacetamide]
[4]; [8]
  IC90: 9.97 ± 0.33 µM
other
  melting point: 103 to 106 °C

## CCCCN(CCCC)CCCNC(=O)C(C)C1=C(C)/C(=C/c2ccc(SC)cc2)c2ccc(F)cc21 (stereo not drawn) [Compound 47, (Z)-N-(3-(Dibutylamino)propyl)-2-(5-fluoro-2-methyl-1-(4-(methylthio)benzylidene)-1H-inden-3-yl)propanamide]
[4]; [8]
  IC90: 1.22 ± 0.04 µM
other
  melting point: 121 to 124 °C

## CSc1ccc(/C=C2/C(C)=C(CC(=O)N3CCN(CCCN(C)C)CC3)c3cc(F)ccc32)cc1 [Compound 31, (Z)-1-(4-(3-(Dimethylamino)propyl)piperazin-1-yl)-2-(5-fluoro-2-methyl-1-(4-(methylthio)benzylidene)-1H-inden-3-yl)ethanone]
[4]; [8]
  IC90: 9.55 ± 0.31 µM
other
  melting point: 131 to 134 °C

## CC[C@@H](CO)NCCN[C@@H](CC)CO [Ethambutol]
[2]; [6]
  MIC99: 4 to 8 µg/mL (≈ 19.6 to 39.2 µM)
[3]; [7]
  MIC99: 2 to 4 µg/mL

## CC1=C(CC(=O)N2CCC[C@H]2CN2CCCC2)c2cc(F)ccc2/C1=C\c1nc2ccccc2s1 [Compound 43, (S,Z)-2-(1-(Benzo[d]thiazol-2-ylmethylene)-5-fluoro-2-methyl-1H-inden-3-yl)-1-(2-(pyrrolidin-1-ylmethyl)pyrrolidin-1-yl)ethanone]
[4]; [8]
  IC90: 3.68 ± 0.11 µM
other
  melting point: 79 to 81 °C

## CC/C(=C(\c1ccccc1)c1ccc(OCCN(C)C)cc1)c1ccccc1 [Compound 11, Tamoxifen citrate]
[2]; [6]
  MIC99: 32 µg/mL

## CC1=C(CC(=O)NCCN(C)C)c2cc(F)ccc2/C1=C\c1nc2ccccc2s1 [Compound 38, (Z)-2-(1-(Benzo[d]thiazol-2-ylmethylene)-5-fluoro-2-methyl-1H-inden-3-yl)-N-(2-(dimethylamino)ethyl)acetamide]
[4]; [8]
  IC90: 4.75 ± 0.05 µM
other
  melting point: 132 to 135 °C

## CSc1ccc(/C=C2/C(C)=C(CC(=O)NCCCn3ccnc3)c3cc(F)ccc32)cc1 [Compound 33, (Z)-N-(3-(1H-Imidazol-1-yl)propyl)-2-(5-fluoro-2-methyl-1-(4-(methylthio)benzylidene)-1H-inden-3-yl)acetamide]
[4]; [8]
  IC90: 1.18 ± 0.01 µM
other
  melting point: 103 to 105 °C

## COC(=O)[C@H](C)NC(=O)CC1=C(C)/C(=C/c2ccc(SC)cc2)c2ccc(F)cc21 [Compound 37, (S,Z)-Methyl 2-(2-(5-fluoro-2-methyl-1-(4-(methylthio)benzylidene)-1H-inden-3-yl)acetamido)propanoate]
[4]; [8]
  IC90: 3.04 ± 0.1 µM
other
  melting point: 151 to 154 °C

## CSc1ccc(/C=C2/C(C)=C(CC(=O)N3CCC[C@H]3CN3CCCC3)c3cc(F)ccc32)cc1 [Compound 29, (S,Z)-2-(5-Fluoro-2-methyl-1-(4-(methylthio)benzylidene)-1H-inden-3-yl)-1-(2-(pyrrolidin-1-ylmethyl)pyrrolidin-1-yl)ethanone]
[4]; [8]
  IC90: 4.06 ± 0.03 µM
other
  melting point: 101 to 104 °C

## CSc1ccc(/C=C2/C(C)=C(CCNCc3ccccc3)c3cc(F)ccc32)cc1 [Compound 58]
[2]; [6]
  MIC99: 4 µg/mL (≈ 9.63 µM)
[3]; [7]
  MIC99: 2 µg/mL
[4]; [8]
  IC90: 2.07 ± 0.01 µM

## CSc1ccc(/C=C2/C(C)=C(C(C)C(=O)N3CCC[C@H]3CN3CCCC3)c3cc(F)ccc32)cc1 (stereo partly drawn) [Compound 52, 2-((Z)-5-Fluoro-2-methyl-1-(4-(methylthio)benzylidene)-1H-inden-3-yl)-1-((S)-2-(pyrrolidin-1-ylmethyl)pyrrolidin-1-yl)propan-1-one]
[4]; [8]
  IC90: 2.55 ± 0.03 µM
other
  melting point: 80 to 82 °C

## CSc1ccc(/C=C2/C(C)=C(CC(=O)N(C)CCN(C)C(=O)C(N)C(C)C)c3cc(F)ccc32)cc1 (stereo not drawn) [Compound 56, (Z)-2-Amino-N-(2-(2-(5-fluoro-2-methyl-1-(4-(methylthio)benzylidene)-1H-inden-3-yl)-N-methylacetamido)ethyl)-N,3-dimethylbutanamide]
[1]; [5]
  IC50: 38 ± 6.3 µM
[3]; [7]
  MIC99: 8 µg/mL
[4]; [8]
  IC90: 4.34 ± 0.06 µM

## CN(C)[C@@H]1C(O)=C(C(N)=O)C(=O)[C@@]2(O)C(O)=C3C(=O)c4c(O)cccc4[C@@](C)(O)[C@H]3C[C@@H]12 [Compound 5, Tetracycline]
[1]
  IC50: 87.1 ± 10.7 µM
[3]; [7]
  MIC99: 1 µg/mL

## CSc1ccc(/C=C2/C(C)=C(CC(=O)NCc3ccc(N(C)C)cc3)c3cc(F)ccc32)cc1 [Compound 35, (Z)-N-(4-(Dimethylamino)benzyl)-2-(5-fluoro-2-methyl-1-(4-(methylthio)benzylidene)-1H-inden-3-yl)acetamide]
[1]; [5]
  IC50: 22.9 ± 4.8 µM
[3]; [7]
  MIC99: 64 µg/mL
[4]; Mycobacterium tuberculosis, H37RV, at 50 μM
  inhibition at 50 µM: 82%
[4]; [8]
  IC90: > 100 µM
[4]; [9]
  Mtb H37Rv IC90: inactive
other
  melting point: 174 to 177 °C

## COc1cc2c(c(OC)c1OC)-c1ccc(OC)c(=O)cc1[C@@H](NC(C)=O)CC2 [Compound 1, Colchicine]
[2]; [6]
  MIC99: > 64 µg/mL
[3]; read-out: Mtb H37Ra MIC99
  MIC99: > 64 µg/mL

## CN(C)c1ccc(O)c2c1C[C@H]1C[C@H]3[C@H](N(C)C)C(O)=C(C(N)=O)C(=O)[C@@]3(O)C(O)=C1C2=O [Compound 6, Minocycline]
[1]
  IC50: 37.3 ± 4.6 µM
[3]; [7]
  MIC99: ≤ 0.5 µg/mL

## CSc1ccc(/C=C2/C(C)=C(CC(=O)NCCN3CCCC3)c3cc(F)ccc32)cc1 [Compound 26, (Z)-2-(5-Fluoro-2-methyl-1-(4-(methylthio)benzylidene)-1H-inden-3-yl)-N-(2-(pyrrolidin-1-yl)ethyl)acetamide]
[1]; [5]
  IC50: 33.5 ± 5.9 µM
[3]; [7]
  MIC99: 8 µg/mL
[4]; [8]
  IC90: 3.04 ± 0.04 µM
other
  melting point: 106 to 108 °C

## CSc1ccc(/C=C2/C(C)=C(CC(=O)N(C)CCN(C)C)c3cc(F)ccc32)cc1 [Compound 19, (Z)-N-(2-(Dimethylamino)ethyl)-2-(5-fluoro-2-methyl-1-(4-(methylthio)benzylidene)-1H-inden-3-yl)-N-methylacetamide]
[1]; [5]
  IC50: 42.3 ± 6 µM
[3]; [7]
  MIC99: 16 µg/mL
[4]; [8]
  IC90: 6.67 ± 0.14 µM

## CCN(CC)CCNC(=O)CC1=C(C)/C(=C/c2ccc(SC)cc2)c2ccc(F)cc21 [Compound 20, (Z)-N-(2-(Diethylamino)ethyl)-2-(5-fluoro-2-methyl-1-(4-(methylthio)benzylidene)-1H-inden-3-yl)acetamide]
[4]; [8]
  IC90: 3.59 ± 0.06 µM
other
  melting point: 98 to 100 °C

Reference: publication PMC5074515 (PLoS ONE, 2016)
